# Where a name gives a salt, the structure may show the parent alone.
# Assay: solubility in water at room temperature
# Format: physicochemical
structure (smiles),measurement,value
"CCc1c2c(nc3ccc(OC(=O)N4CCC(N5CCCCC5)CC4)cc13)-c1cc3c(c(=O)n1C2)COC(=O)[C@]3(O)CC [form H, irinotecan hydrochloride]",solubility,> 20 mg/mL

# Reference: patent US8247426B2, “Crystalline irinotecan hydrochloride and methods for its preparation” (Antibioticos S.p.A., priority 2008, dated 2012)
